Measurements: ChEMBL document CHEMBL1208761, “Smoothened antagonists for hair inhibition” (Bioorg Med Chem Lett, 2010)
Values after ≈ are worked out from the molar mass of the structure shown. Values joined by “and” are separate entries in the source; they are usually repeats but may differ in a detail not shown here. Identical values can stand only once. Active and inactive are the calls of the source. No cut-off for these calls is given here.

Tests used:
[1] = molecular target: T1, Protein smoothened (Homo sapiens, UniProt Q99835); assay: Inhibition of Smoothened transfected in HEK293 cells by binding assay; type: cell-based
T1 sequence (Q99835 whole entry): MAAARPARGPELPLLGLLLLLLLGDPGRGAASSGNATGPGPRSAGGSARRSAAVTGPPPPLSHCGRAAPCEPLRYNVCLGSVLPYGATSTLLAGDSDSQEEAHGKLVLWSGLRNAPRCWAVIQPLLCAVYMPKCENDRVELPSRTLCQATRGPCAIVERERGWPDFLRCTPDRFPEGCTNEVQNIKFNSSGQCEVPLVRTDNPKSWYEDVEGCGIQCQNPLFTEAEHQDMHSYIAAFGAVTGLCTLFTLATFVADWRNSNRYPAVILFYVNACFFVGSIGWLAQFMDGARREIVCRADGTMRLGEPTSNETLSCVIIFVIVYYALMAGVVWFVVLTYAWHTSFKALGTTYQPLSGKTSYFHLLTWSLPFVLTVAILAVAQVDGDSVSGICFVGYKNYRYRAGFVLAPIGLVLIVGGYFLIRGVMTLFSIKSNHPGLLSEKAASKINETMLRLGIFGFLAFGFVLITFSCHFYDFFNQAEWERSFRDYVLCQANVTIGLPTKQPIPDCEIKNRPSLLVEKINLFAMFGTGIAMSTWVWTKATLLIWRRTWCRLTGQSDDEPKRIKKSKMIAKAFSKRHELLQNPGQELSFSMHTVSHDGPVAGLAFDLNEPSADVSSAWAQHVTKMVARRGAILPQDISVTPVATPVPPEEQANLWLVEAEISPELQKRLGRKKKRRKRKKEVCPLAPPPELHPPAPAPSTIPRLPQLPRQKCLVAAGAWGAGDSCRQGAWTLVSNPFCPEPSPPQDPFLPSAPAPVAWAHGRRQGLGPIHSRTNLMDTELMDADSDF

[2] = molecular target: T1, Protein smoothened; assay: Inhibition of Smoothened transfected in HEK293 cells by transient transfection cell-based assay
[3] = molecular target: Beta-2 adrenergic receptor (Homo sapiens, UniProt P07550); assay: Binding affinity to beta2 adrenergic receptor
Sequence of Beta-2 adrenergic receptor (P07550 whole entry): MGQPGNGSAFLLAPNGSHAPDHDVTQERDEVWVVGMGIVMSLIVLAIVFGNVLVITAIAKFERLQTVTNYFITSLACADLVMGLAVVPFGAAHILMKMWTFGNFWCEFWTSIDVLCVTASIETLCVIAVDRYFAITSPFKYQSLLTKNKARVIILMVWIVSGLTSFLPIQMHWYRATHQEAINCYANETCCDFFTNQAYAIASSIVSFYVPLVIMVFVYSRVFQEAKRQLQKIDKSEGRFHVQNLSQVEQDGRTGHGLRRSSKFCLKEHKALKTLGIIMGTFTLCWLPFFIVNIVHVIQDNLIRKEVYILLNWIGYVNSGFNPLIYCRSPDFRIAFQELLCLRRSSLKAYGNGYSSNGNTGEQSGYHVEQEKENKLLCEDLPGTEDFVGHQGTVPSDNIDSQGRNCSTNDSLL

[4] = Binding affinity to calcium channel
[5] = molecular target: 5-hydroxytryptamine receptor 2A (Homo sapiens, UniProt P28223); assay: Binding affinity to 5HT2A receptor
Sequence of 5-hydroxytryptamine receptor 2A (P28223 whole entry): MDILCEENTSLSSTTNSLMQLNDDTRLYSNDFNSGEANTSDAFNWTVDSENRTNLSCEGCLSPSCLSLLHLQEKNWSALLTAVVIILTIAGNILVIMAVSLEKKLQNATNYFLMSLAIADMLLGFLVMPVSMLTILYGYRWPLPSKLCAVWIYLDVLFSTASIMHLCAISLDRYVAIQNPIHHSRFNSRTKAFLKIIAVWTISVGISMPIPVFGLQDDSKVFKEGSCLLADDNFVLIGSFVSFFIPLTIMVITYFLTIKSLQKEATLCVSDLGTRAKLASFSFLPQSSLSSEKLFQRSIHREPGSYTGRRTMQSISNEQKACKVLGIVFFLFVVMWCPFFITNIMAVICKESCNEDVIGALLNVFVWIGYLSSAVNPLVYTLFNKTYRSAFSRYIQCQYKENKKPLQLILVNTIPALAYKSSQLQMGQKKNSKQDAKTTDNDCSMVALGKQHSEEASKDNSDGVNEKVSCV

[6] = molecular target: Beta-1 adrenergic receptor (Homo sapiens, UniProt P08588); assay: Binding affinity to beta-1 adrenergic receptor
Sequence of Beta-1 adrenergic receptor (P08588 whole entry): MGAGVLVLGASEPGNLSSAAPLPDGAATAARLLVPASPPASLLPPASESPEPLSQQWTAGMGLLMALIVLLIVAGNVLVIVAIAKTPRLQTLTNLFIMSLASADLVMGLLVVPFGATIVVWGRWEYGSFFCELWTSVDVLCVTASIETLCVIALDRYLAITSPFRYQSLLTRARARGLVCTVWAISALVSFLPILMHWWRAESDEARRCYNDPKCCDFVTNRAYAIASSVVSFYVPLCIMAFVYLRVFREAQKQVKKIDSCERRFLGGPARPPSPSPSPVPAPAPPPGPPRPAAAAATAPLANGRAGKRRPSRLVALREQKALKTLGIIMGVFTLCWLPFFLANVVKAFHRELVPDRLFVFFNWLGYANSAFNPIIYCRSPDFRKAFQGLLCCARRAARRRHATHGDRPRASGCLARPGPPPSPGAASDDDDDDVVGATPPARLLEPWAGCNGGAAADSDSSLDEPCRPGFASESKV

[7] = molecular target: T2, 5-hydroxytryptamine receptor 1A (Homo sapiens, UniProt P08908); assay: Binding affinity to 5HT1A receptor
T2 sequence (P08908 whole entry): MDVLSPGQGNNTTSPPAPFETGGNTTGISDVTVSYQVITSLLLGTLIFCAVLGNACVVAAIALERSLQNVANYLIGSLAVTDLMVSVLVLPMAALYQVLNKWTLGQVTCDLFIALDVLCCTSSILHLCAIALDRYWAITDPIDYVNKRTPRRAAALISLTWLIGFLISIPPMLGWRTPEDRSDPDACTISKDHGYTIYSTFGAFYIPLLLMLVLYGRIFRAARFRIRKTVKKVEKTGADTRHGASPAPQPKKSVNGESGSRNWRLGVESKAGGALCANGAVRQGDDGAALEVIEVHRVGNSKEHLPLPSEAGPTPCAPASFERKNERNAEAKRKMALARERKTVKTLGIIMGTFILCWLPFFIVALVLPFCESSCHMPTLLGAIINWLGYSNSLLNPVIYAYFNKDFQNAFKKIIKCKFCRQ

[8] = molecular target: D(2) dopamine receptor (Homo sapiens, UniProt P14416); assay: Binding affinity to dopamine D2 receptor
[9] = organism: Mus musculus; assay: Inhibition of hair growth in C3H/HeN mouse model assessed as inhibition of hair growth after 14 days; type: functional
[10] = molecular target: D(1A) dopamine receptor (Homo sapiens, UniProt P21728); assay: Binding affinity to dopamine D1 receptor
Sequence of D(1A) dopamine receptor (P21728 whole entry): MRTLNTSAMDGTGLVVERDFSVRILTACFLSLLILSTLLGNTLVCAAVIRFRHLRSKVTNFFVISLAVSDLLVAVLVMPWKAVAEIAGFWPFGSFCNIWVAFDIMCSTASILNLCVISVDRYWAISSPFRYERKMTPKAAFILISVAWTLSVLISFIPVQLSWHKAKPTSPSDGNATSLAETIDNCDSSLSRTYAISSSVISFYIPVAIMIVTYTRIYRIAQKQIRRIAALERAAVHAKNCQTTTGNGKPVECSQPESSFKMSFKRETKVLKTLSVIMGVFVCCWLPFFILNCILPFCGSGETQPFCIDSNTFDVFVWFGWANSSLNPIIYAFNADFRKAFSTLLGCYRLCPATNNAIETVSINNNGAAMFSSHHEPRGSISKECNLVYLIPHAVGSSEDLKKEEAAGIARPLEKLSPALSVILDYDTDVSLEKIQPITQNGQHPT

[11] = molecular target: 5-hydroxytryptamine receptor 2B (Homo sapiens, UniProt P41595); assay: Binding affinity to 5HT2B receptor
[12] = molecular target: 5-hydroxytryptamine receptor 7 (Homo sapiens, UniProt P34969); assay: Binding affinity to 5HT7 receptor
[13] = molecular target: T3, D(4) dopamine receptor (Homo sapiens, UniProt P21917); assay: Binding affinity to dopamine D4 receptor
T3 sequence (P21917 whole entry): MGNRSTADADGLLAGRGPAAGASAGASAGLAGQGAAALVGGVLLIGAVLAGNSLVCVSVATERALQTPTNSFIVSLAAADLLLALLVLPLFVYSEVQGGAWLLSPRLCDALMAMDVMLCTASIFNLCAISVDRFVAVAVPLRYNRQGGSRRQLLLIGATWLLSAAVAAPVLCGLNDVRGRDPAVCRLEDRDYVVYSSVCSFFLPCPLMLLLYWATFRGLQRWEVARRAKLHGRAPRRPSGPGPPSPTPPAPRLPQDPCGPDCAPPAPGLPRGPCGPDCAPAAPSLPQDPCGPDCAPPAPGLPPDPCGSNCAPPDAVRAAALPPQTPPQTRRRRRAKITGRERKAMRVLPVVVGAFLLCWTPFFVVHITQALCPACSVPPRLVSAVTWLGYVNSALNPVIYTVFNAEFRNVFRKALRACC

[14] = Apparent permeability from apical to basolateral side of cell membrane at 10 uM; type: ADME; conditions: not told
[15] = Solubility of the compound; type: physicochemical
[16] = Metabolic stability in rat liver microsomes assessed as half life; type: ADME, Microsome
[17] = molecular target: Voltage-gated inwardly rectifying potassium channel KCNH2 (Homo sapiens, UniProt Q12809); assay: Binding affinity to human ERG
Sequence of Voltage-gated inwardly rectifying potassium channel KCNH2 (Q12809 whole entry): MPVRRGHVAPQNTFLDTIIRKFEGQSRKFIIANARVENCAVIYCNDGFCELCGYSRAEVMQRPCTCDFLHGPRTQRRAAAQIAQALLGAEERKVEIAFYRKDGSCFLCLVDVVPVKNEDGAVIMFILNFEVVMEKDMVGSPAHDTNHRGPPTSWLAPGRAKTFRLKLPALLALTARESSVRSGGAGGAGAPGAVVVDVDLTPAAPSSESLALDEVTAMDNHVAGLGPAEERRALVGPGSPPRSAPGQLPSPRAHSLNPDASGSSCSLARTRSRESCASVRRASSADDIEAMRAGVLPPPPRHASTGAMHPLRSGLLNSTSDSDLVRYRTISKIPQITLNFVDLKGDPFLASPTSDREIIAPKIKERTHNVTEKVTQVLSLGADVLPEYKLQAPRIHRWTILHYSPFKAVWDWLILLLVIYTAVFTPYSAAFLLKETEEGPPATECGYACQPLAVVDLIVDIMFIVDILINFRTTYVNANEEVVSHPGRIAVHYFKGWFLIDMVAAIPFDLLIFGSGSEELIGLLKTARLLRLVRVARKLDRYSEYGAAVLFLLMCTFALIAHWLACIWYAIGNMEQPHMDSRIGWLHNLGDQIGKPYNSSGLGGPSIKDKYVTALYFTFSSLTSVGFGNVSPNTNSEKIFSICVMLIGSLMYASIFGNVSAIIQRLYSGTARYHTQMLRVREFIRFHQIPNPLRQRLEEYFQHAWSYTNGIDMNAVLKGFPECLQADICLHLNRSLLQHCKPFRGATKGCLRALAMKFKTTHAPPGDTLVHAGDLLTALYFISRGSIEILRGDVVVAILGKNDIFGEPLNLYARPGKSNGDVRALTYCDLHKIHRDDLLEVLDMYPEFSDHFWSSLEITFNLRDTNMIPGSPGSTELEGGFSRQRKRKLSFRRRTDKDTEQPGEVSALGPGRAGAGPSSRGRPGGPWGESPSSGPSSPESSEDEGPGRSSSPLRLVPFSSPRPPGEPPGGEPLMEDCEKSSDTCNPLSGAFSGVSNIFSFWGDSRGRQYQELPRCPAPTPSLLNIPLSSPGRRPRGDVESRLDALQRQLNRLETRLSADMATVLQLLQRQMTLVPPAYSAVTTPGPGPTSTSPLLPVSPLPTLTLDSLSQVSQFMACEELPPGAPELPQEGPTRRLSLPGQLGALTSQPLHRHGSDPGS

[18] = system: Zone of skin; assay: Permeability of the compound in human skin assessed as skin penetration relative to isobutylmethylxanthine; type: ADME, tissue-based
[19] = molecular target: hERG (KCNH2) (Homo sapiens, UniProt Q12809); assay: Inhibition of human ERG at 3 uM
Sequence of hERG (KCNH2) (Q12809 whole entry): as above

[20] = Metabolic stability in human liver microsomes assessed as half life; type: ADME, Microsome
[21] = molecular target: T4, Alpha-1B adrenergic receptor (Homo sapiens, UniProt P35368); assay: Binding affinity to adrenergic alpha-1b receptor
T4 sequence (P35368 whole entry): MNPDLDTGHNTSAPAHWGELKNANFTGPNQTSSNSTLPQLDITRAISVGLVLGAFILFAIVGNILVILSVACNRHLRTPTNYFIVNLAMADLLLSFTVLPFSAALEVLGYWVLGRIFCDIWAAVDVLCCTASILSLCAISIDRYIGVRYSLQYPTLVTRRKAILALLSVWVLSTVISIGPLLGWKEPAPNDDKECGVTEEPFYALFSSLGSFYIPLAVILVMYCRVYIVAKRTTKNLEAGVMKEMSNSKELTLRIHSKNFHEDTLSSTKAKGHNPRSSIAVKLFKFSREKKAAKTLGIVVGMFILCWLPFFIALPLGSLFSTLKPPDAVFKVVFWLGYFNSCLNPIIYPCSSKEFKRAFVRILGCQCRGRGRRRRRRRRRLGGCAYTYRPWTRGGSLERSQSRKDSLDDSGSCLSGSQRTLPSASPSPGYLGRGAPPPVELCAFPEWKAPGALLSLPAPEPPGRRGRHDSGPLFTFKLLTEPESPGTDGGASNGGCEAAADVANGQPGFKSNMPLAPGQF

[22] = Inhibition of CYP450; type: ADME
[23] = molecular target: T5, Alpha-1A adrenergic receptor (Homo sapiens, UniProt P35348); assay: Binding affinity to adrenergic Alpha-1A receptor
T5 sequence (P35348 whole entry): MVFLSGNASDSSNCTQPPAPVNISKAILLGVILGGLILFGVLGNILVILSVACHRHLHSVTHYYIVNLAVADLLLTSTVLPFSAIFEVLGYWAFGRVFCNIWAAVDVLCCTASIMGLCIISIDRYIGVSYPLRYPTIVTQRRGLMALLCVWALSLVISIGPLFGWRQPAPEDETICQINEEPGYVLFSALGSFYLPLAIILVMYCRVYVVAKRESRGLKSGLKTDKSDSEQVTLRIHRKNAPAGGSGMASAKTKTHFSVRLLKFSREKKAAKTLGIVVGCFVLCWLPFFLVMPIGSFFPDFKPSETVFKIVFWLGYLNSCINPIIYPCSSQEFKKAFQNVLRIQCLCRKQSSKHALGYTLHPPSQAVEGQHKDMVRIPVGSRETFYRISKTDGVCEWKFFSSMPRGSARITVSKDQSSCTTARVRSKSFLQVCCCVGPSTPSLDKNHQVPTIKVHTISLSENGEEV

| Structure (SMILES) | IC50 [1] [nM] | IC50 [2] [nM] | also measured |
| --- | --- | --- | --- |
| Cc1nn(-c2ccccc2)cc1CN1CCN(c2ccc(F)cc2)CC1 | > 5000 | > 5000 | – |
| COc1ccc(OC)c(C2CCN(Cc3cnn(-c4ccccc4F)c3C)C2)c1 (configuration not stated) | 216 | 40.8 | Ki [3]: > 1000 nM; Ki [4]: > 1000 nM; Ki [5]: > 1000 nM; Ki [6]: > 1000 nM; Ki [7]: 103 nM; Ki [8]: > 1000 nM; hair growth inhibition (active/inactive call) [9]: Active; Ki [10]: > 1000 nM; Ki [11]: 180 nM; Ki [12]: 15 nM |
| COc1ccc(N2CCN(Cc3c(C)nn(-c4ccc(F)cc4)c3C)CC2)cc1 | 2000 | 1690 | – |
| COc1cccc(N2CCN(Cc3c(C)nn(-c4ccc(F)cc4)c3C)CC2)c1 | 20 | 823 | – |
| NCCCC(N)(C(=O)O)C(F)F (configuration not stated) [EFLORNITHINE] | – | – | inhibition (INH) [9]: 13.9% |
| Cc1c(CN2CCN(c3ccccc3)CC2)cnn1-c1ccccc1 | 96 | 78.4 | – |
| Cc1c(CN2CCN(c3cccc(C(F)(F)F)c3)CC2)cnn1-c1ccccc1 | 333 | 328 | – |
| Cc1nn(-c2ccccc2)c(Cl)c1CN1CCN(c2ccc(F)cc2)CC1 | 10 | 1860 | – |
| COc1cccc(F)c1OC1CN(Cc2cnn(-c3ccccc3)c2C)C1 | 124 | 8.27 | Ki [13]: 148 nM and > 1000 nM; Papp A→B at 10 µM [14]: 11.3 ×10⁻⁶ cm/s; Ki [5]: > 1000 nM; solubility [15]: 79 µg/mL (≈ 215 µM); half-life [16]: 9.7 min; Ki [17]: > 1000 nM; Ki [7]: > 1000 nM; Ratio [18]: 0.52; hair growth inhibition (active/inactive call) [9]: Active; inhibition at 3 µM [19]: 56%; half-life [20]: 30.2 min; Ki [21]: > 1000 nM; inhibition (INH) [22]: Not Active; Ki [23]: 76 nM |
| COc1cccc(N2CCN(Cc3cnn(-c4ccc(F)cc4)c3C)CC2)c1 | 5 | 64.7 | – |
| Cc1nn(-c2ccccc2)c(C)c1/C=N/N1CCN(Cc2ccccc2)CC1 | 25 | 4.74 | inhibition (INH) [9]: 3% |
| COc1ccc(N2CCN(Cc3cn(-c4ccccc4)nc3C)CC2)cc1 | > 5000 | > 5000 | – |
| COc1ccccc1N1CCN(Cc2c(C)nn(-c3ccccc3)c2C)CC1 | > 5000 | 1870 | – |
| COc1ccc(N2CCN(Cc3cnn(-c4ccccc4)c3C)CC2)cc1 | 126 | 105 | – |
